Laboratory results reported in the METLIN SMRT retention time set (Domingo-Almenara et al. 2019).

Experiment: gradient 5% acetonitrile 3 min, to 50% in 2 min, to 85% in 15 min, held 3 min, 100 µL/min
Details: column: Zorbax Extend-C18 2.1 x 50 mm; eluents: water / acetonitrile, 0.1% formic acid
Procedure, shortened: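 A Zorbax Extend-C18 column (2.1 × 50 mm, 1.8 μm) run at 100 μL/min with water and acetonitrile, both containing 0.1% formic acid, separated mixtures of ~100 pure standards. The HPLC was coupled to a quadrupole time-of-flight mass spectrometer operated in positive and negative ionization mode, with dead and dwell volumes of 40 μL and 900 μL. Each retention time was taken from a computationally picked adduct peak that was then manually inspected.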

Row | SMILES | RP-LC retention time [s]
1 | Cc1c(Cl)cccc1-n1ccnc(NC(=O)Nc2ccc(F)cc2)c1=O | 1000
2 | CCC(C)NC(=O)C1CCCN(c2nccn3nc(-c4ccc(C)cc4C)cc23)C1 (stereo unspecified) | 908
3 | O=C1c2ccccc2NC(c2cc(Cl)cc(Cl)c2O)N1CCc1ccccn1 (stereo unspecified) | 723
4 | COc1cccc2[nH]c(C(=O)NCCC(=O)NCCc3c[nH]c4ccccc34)cc12 | 662
5 | Cc1nc(-c2cc(S(=O)(=O)N3CCCCC3)c(C)n2C)sc1C | 1140
6 | COc1ccccc1-c1noc(C2CCCN2C(=O)Nc2ccc(F)cc2)n1 (stereo unspecified) | 842
7 | CC(C)S(=O)(=O)c1cc2c(cc1NC(=O)c1ccccc1Br)n(C)c(=O)n2C | 822
8 | Cc1nc2cc(N3CC(C(=O)NCc4ccc(Br)cc4)CC3=O)ccc2o1 (stereo unspecified) | 761
9 | COc1cccc(C(=O)N2CCC(Oc3nc4c(C)ccc(C)c4s3)CC2)c1OC | 1220
10 | COc1ccc(Cl)cc1NS(=O)(=O)c1c[nH]c2ncccc12 | 763
11 | CCOc1ccc(S(=O)(=O)N2CCC(c3noc(-c4ccc(F)cc4)n3)CC2)cc1 | 1120
12 | COc1cccc(Nc2nc(C)c(C(=O)Nc3ccc(F)c(Cl)c3)s2)c1 | 1060
13 | CC1(C(=O)NCc2ccc3c(c2)OCO3)CCN(C(=O)Nc2ccccc2C(F)(F)F)CC1 | 812
14 | CCCCN(C)C(=O)C1CCCN(c2cnc3nccnc3c2)C1 (stereo unspecified) | 686
15 | COc1cccc(N2CCN(S(=O)(=O)c3cn(C(C)C)c4ncccc34)CC2)c1 | 1060
16 | CCN1C(=O)COc2ccc(-c3nc(NC(=O)C(C)(C)C)sc3C)cc21 | 643
17 | O=C(Nc1cc(-c2ccco2)nn1CCO)c1ccc(S(=O)(=O)N2CCOCC2)cc1 | 622
18 | Cc1ccc2c(Nc3ccc(F)c(C#N)c3)c(C(=O)N3CCC(C)CC3)cnc2n1 | 603
19 | CC(=O)Nc1ccc(OCc2cc(C(=O)NC3CCCCC3)no2)cc1 | 781
20 | COc1ccc(-c2cn3c(CC(=O)Nc4ccc(C)cn4)csc3n2)cc1OC | 653
21 | CCC(C)NC(=O)N1CC(Oc2ccc(-c3noc(COC)n3)cc2)C1 (stereo unspecified) | 794
22 | O=C(c1ccccc1)N1CCC(n2nc(-c3ccsc3)ccc2=O)CC1 | 780

Row | SMILES | RP-LC retention time [s]
23 | COc1ccc(-c2nnc(COc3ccc(NC(=O)C4CCC4)cc3)o2)cc1 | 826
24 | CCOC(=O)c1c(C)[nH]c(C(=O)N2CCC(C(C)C(=O)NCc3ccccc3C)CC2)c1C (stereo unspecified) | 851
25 | O=C(Cn1ccc2ccccc21)N1CCC(COCc2ccccc2)CC1 | 1020
26 | O=C(Cn1c(Cc2ccc(Cl)cc2)nc2ccccc21)N1CCCCCC1 | 739
27 | CCN1C(=O)C2CC3(CCN(C(=O)CC(C)C)CC3)CN2C1=O (stereo unspecified) | 692
28 | CCC(C)N(CC(=O)N1CCc2sccc2C1COc1ccccc1C)C(=O)COC (stereo unspecified) | 942
29 | Cc1noc(C)c1-c1ccc(S(=O)(=O)Nc2cccc(Br)c2)cc1 | 1000
30 | COCCc1noc(-c2cnc3nc(C)ccc3c2NC2CCCCCC2)n1 | 734
31 | COc1ccc(N2CCN(C(=S)Nc3ccc4nc(N5CCN(C)CC5)cc(C)c4c3)CC2)cc1 | 580
32 | CCCOCCOC(=O)C1=C(C)NC2=C(C(=O)C(C(=O)OC)C(C)C2)C1c1ccccc1F (stereo unspecified) | 946
33 | CN1c2ccc(F)cc2C(=O)NC12CCN(C(=O)c1ccc(F)cc1)CC2 | 769
34 | CC(C)CCNC(=O)C1CCCN(C(=O)c2cc(-c3ccncc3)n[nH]2)C1 (stereo unspecified) | 591
35 | Cc1nc2ccn(Cc3cccnc3)c(=O)c2cc1C(=O)N1CCOCC1 | 552
36 | O=C(Cn1cnc(-c2ccc(Cl)cc2)cc1=O)NCc1ccccc1OC(F)(F)F | 910
37 | CCn1c(=O)c2ccn(CC(=O)Nc3cc(C)cc(C)c3)c2n(CC)c1=O | 792
38 | COc1cc(NC(=O)C2CCCN(c3cc(=O)n(C)c(=O)n3C)C2)cc(OC)c1OC (stereo unspecified) | 854
39 | COc1ccc(CNCCSc2nnnn2C)c(OC)c1 | 598
40 | CCOC(=O)C1CCN(C(=O)C(C)n2c(=O)c(C(F)(F)F)nc3cc(C)c(C)cc32)CC1 (stereo unspecified) | 1170
41 | Cc1nn(C)c(C)c1CNC(=O)CN1CCN(Cc2ccc(F)cc2)C1=O | 623
42 | CCCCN(C)CCCNC(=O)c1ccc2c(c1)NC(=O)C(C(C)CC)N2 (stereo unspecified) | 612
43 | Cc1ccc(NC(=O)C2CCc3sc(C(=O)N(C)C)cc3C2)c(C)c1 (stereo unspecified) | 799
44 | COc1ccc2[nH]c(=O)c(CCC(=O)NC3CCN(Cc4ccccc4)CC3)cc2c1 | 596

Row | SMILES | RP-LC retention time [s]
45 | O=C(NCc1ccccc1)C1CCN(Cc2nncn2-c2ccccc2F)CC1 | 570
46 | O=C(NCc1cnoc1-c1ccc(F)cc1)c1ccc2c(c1)OCO2 | 881
47 | O=C(NCCc1ccncc1)C1CN(C(=O)c2ccncc2)CC12CCCCC2 (stereo unspecified) | 551
48 | COCCn1cc(CCNC(=O)Nc2ccccc2C)c2cccnc21 | 694
49 | O=C(NCCc1csc(C2CCCN(C(=O)C3CCCC3)C2)n1)C1CC1 (stereo unspecified) | 696
50 | CC(=O)N1c2ccc(S(=O)(=O)N3CCCCC3)cc2CC1C(=O)NCc1ccc(N(C)C)cc1 (stereo unspecified) | 879
51 | O=C(NCCc1cccs1)c1nnc(-c2ccc(S(=O)(=O)N3CCCCC3)cc2)o1 | 977
52 | COc1ccc(CCC(=O)N2CCC3(C2)C(=O)N(C)c2ccc(OC)cc23)cc1 (stereo unspecified) | 800
53 | O=S(=O)(NCc1cccs1)c1ccc(Cl)c(-c2nnc(-c3ccccc3)o2)c1 | 1020
54 | Cc1ccc2ncn(C3CCN(C(=O)Nc4ccc(C)c(C)c4)CC3)c(=O)c2c1 | 799
55 | CC(C)NC(=O)C1CCN(c2nc3ccc(-c4ccc(F)cc4)nc3s2)CC1 | 752
56 | CCSC(=O)N1c2ccc(OC)cc2C=CC1C#N (stereo unspecified) | 911
57 | CCc1cc(=O)n(CC(=O)Nc2ccc(F)cc2C)c(N)n1 | 599
58 | O=C1C(N2CCN(S(=O)(=O)c3cc(F)cc(F)c3)CC2)CCN1Cc1ccccn1 (stereo unspecified) | 601
59 | CNC(=O)c1c(F)cccc1Nc1nc(Nc2cc3c(cc2OC)CCN3C(=O)CN(C)C)nc2[nH]ccc12 | 652
60 | COc1cc(NC(=O)c2cc(C(C)(C)C)n3nccc3n2)cc(OC)c1 | 721
61 | O=C(NCC1OCCc2ccccc21)C(=O)Nc1ccccc1 (stereo unspecified) | 956
62 | Cc1nc(-c2ccc3c(c2)CCN3C(=O)Cc2cccc(F)c2)no1 | 923
63 | COC(=O)CNC(=O)Cc1c(C)nn(-c2nc(-c3ccc(Cl)cc3)cs2)c1C | 1010
64 | CCOC(=O)CNC(=O)NC(C(=O)N1CCc2ccccc21)c1ccccc1 (stereo unspecified) | 832
65 | O=C(CN1CN(c2ccccc2)c2ncccc2S1(=O)=O)Nc1ccccc1Cl | 934
66 | COc1ccc(-c2nnc(-c3cccc(S(=O)(=O)N(C)C)c3)o2)cc1 | 908
